Laboratory results taken from US9913838B2, “Methods of treating cancer using compositions comprising perillyl alcohol derivative” (NEONC TECHNOLOGIES INC., priority 2010, dated 2018).
“Also recorded” adds a separate entry of the source.

Tests used:
U87 human glioma cells = experiment: MTT cytotoxicity assay, U87 glioma cells; conditions: U87; result in words
Excerpt: In vitro efficacy of the present composition can be determined using methods well known in the art. For example, the cytoxicity of the present monoterpene (or sesquiterpene) and/or the therapeutic agents may be studied by MTT [3-(4,5-dimethylthiazol-2-yl)-2,5-diphenyl tetrazolium bromide] cytotoxicity assay. MTT assay is based on the principle of uptake of MTT, a tetrazolium salt, by metabolically active cells where it is metabolized into a blue colored formazon product, which can be read spectrometrically. J. of Immunological Methods 65: 55 63, 1983. The cytoxicity of the present monoterpene (or sesquiterpene) derivative and/or the therapeutic agents may be studied by colony formation assay. Functional assays for inhibition of VEGF secretion and IL-8 secretion may be performed via ELISA. Cell cycle block by the present monoterpene (or sesquiterpene) derivative and/or the therapeutic agents may be studied by standard propidium iodide (PI) staining and flow cytometry. Invasion inhibition may be studied by Boyden chambers. In this assay a layer of reconstituted basement membrane, Matrigel, is coated onto chemotaxis filters and acts as a barrier to the migration of cells in the Boyden chambers. Only cells with invasive capacity can cross the Matrigel barrier. Other assays include, but are not limited to cell viability assays, apoptosis assays, and morphological assays.
First cytotoxicity assays were carried out after cells were treated with dimethyl-celecoxib (DMC) alone.
Then U87, A172 and U251 cells were treated with dimethyl celecoxib bisPOH carbamate (POH−DMC) (e.g., synthesized by the method in Example 1), and the MTT cytotoxicity assays performed (FIG. 2).
First cytotoxicity assays were carried out after cells were treated with temozolomide (TMZ) alone, the standard alkylating agent used in the treatment of malignant gliomas.
Then TMZ-resistant glioma cell lines U87, A172 and U251 cells were treated with TMZ-POH (e.g., synthesized by the method in Example 3).
To compare the cytotoxicity of Rolipram POH Carbamate (POH-Rolipram) (e.g., synthesized by the method in Example 5) with rolipram, […] inducing differentiation and apoptosis in glioma cells, A172, U87, U251 and LN229 human glioma cells were treated with either POH-Rolipram or rolipram for 48 hours.

[1] = tested on: TMZ resistant (U251TR) U251 cells; experiment: Colony forming assay, TMZ resistant U251TR cells; format: cell-based, human; conditions: in words
Protocol: Colony forming assays were carried out after cells were treated with TMZ alone, POH alone, and the TMZ-POH conjugate. […] Cancer Lett. 2011 Mar. 28; 302(2):100-8.

MDA-MB-231 = experiment: cells; conditions: for reduction of colony formation: 10 μM (each), 48 hours; for IC50: Homo sapiens, MDA-MB-231, 48 h, read-out: IC50 (concentration required to decrease colony formation by 50%)
Protocol: (§1) Depending on the cell line (and plating efficiency), 200-350 cells were seeded into each well of a 6-well plate. […] Thereafter, the drugs were removed, fresh growth medium was added, and the cells were kept in culture undisturbed for 12-16 days, during which time the surviving cells spawned colonies of descendants. Colonies (defined as groups of >50 cells) were visualized by staining for 4 hours with 1% methylene blue (in methanol), and then were counted.
(§2) In the case of O6-BG treatment, cells were pretreated with 10 μM O6-BG for one hour before addition of TMZ or TMZ-POH. After 24 hours, another 10 μM O6-BG was added to the medium. Another 24 hours later, drug-laced medium was removed, and fresh medium without drugs was added. Thereafter, cells remained undisturbed until staining with methylene blue.
The cytotoxic potency of TMZ-POH, was analyzed by colony formation assay (CFA) in a variety of human breast cancer cell lines and compared to the cytotoxicity of TMZ. We used estrogen receptor positive cells MCF7 and T47D, the triple-negative lines MDA-MB-231, MDA-MB-468, and HCC-1937, and a brain-seeking variant of the 231 cell line, MDA-MB-231-br.
Thus, we tested whether simply mixing the two compounds TMZ and POH could mimic the effects of the TMZ-POH conjugate. MDA-MB-231 cells were treated with the individual compounds (TMZ-POH, TMZ or POH) alone, or with an equimolar mix of TMZ plus POH, and cell survival was analyzed by CFA.

231-MGMT-1 = experiment: Colony formation assay, MGMT-transfected 231-MGMT-1; format: cell-based, human; conditions: for IC50: Homo sapiens, 48 h, read-out: IC50 (concentration required to decrease colony formation by 50%)
Protocol: as §1, §2
MDA-MB-231 cells were co-transfected in 6-well plates with the use of Lipofectamine 2000 (Invitrogen, Carlsbad, Calif.) according to manufacturer's instructions. 2 μg pSV2MGMT (containing the human MGMT cDNA) was combined with 0.2 μg pSV2neo (containing the neomycin gene for selection of cells in G418). Both plasmids were provided by Bernd Kaina (Mainz, Germany). Individual clones of transfected cells were selected in medium containing 750 μg/mL G418 and propagated in 250 μg/mL G418. G418 was obtained as G418 disulfate salt from Sigma-Aldrich and dissolved in PBS at 75 mg/mL. Selection medium was removed from cells several days before experimental drug treatment.
To investigate the latter, we stably transfected MGMT-negative MDA-MB-231 cells with MGMT cDNA and isolated individual clones. […] Both clones were treated with increasing concentrations of TMZ-POH and TMZ and analyzed by CFA.

MGMT = experiment: Western blot of MGMT protein levels in MDA-MB-468 cells; format: cell-based, human; conditions: in words
Protocol: In FIG. 21C, MDA-MB-468 cells were treated with the indicated concentrations of TMZ-POH, TMZ, or O6-BG for 17 hours before harvest of cellular lysates. vh.=cells treated with vehicle only.
Total cell lysates were analyzed by Western blot analysis as described in P. Pyrko et al. Downregulation of survivin expression and concomitant induction of apoptosis by celecoxib and its non-cyclooxygenase-2-inhibitory analog, dimethyl-celecoxib (DMC), in tumor cells in vitro and in vivo. Mol Cancer 5 (2006) 19. The primary antibodies were purchased from Cell Signaling Technology (Beverly, Mass.) or Santa Cruz Biotechnology, Inc. (Santa Cruz, Calif.) and used according to the manufacturers' recommendations. All immunoblots were repeated at least once to confirm the results.
The major cytotoxic DNA lesion set by TMZ is methylation of O6-guanine, and it is well known that removal of this methyl group by MGMT leads to rapid degradation of the DNA repair protein.

normal astrocytes = experiment: MTT cytotoxicity assay, normal astrocytes; format: cell-based; conditions: in words
Excerpt: Cancer Lett. 2011 Mar. 28; 302(2):100-8.

MGMT-negative cell lines = experiment: Colony formation assay, MGMT-negative breast cancer cell lines (summary); format: cell-based, human
Protocol: as §1

[2] = tested on: MGMT-positive breast cancer cell lines; experiment: Colony formation assay, MGMT-positive breast cancer cell lines (summary); format: cell-based; conditions: Homo sapiens; range over the three MGMT-positive lines
Protocol: as §1

Compound | cytotoxicity (MTT assay) (U87 human glioma cells) | cytotoxicity (colony forming assay) [1] | reduction of colony formation (MDA-MB-231; MDA-MB-231) | IC50 (MDA-MB-231) [µM] | IC50 (231-MGMT-1) [µM] | MGMT protein levels (MGMT; MDA-MB-468, 50 μM, 17 hours) | cytotoxicity (MTT assay) (normal astrocytes) | Differential (−fold) (MDA-MB-231; fold increase in potency of TMZ-POH compared to TMZ, MDA-MB-231) | Differential (−fold) (231-MGMT-1; fold increase in potency of TMZ-POH compared to TMZ, 231-MGMT-1) | MGMT protein levels (MGMT; MDA-MB-468, 17 hours) | IC50 (MGMT-negative cell lines; Homo sapiens, range over MGMT-negative cell lines) [µM] | active in the range of (MGMT-negative cell lines; MGMT-negative cells) [µM] | IC50 [2] [µM]
Cn1nnc2c(C(N)=O)ncn2c1=O [TMZ, temozolomide, reference compound] | minimal cytotoxicity | minimal cytotoxicity | about 50% | 9.9 | 202 | no effect | – | – | – | – | – | – | –
C=C(C)[C@@H]1CC=C(COC(=O)NC(=O)c2ncn3c(=O)n(C)nnc23)CC1 [TMZ-POH] | substantially higher kill rates | demonstrated cytotoxicity; also recorded: substantially greater potency compared to POH alone | about 95% | 2.3 | 27 | significant decrease | not towards normal astrocytes; also recorded: did not induce significant cytotoxicity | 4.3 −fold | 7.5 −fold | affects MGMT levels more potently than TMZ | 1.2 to 4.6 | 1 to 5 | 31 to 33
